In patent US20100015141A1, “4-PHENOXY-6-ARYL-1H-PYRAZOLO[3,4-D]PYRIMIDINE AND N-ARYL-6-ARYL-1H-PYRAZOLO[3,4-D]PYRIMIDIN-4-AMINE COMPOUNDS, THEIR USE AS MTOR KINASE AND PI3 KINASE INHIBITORS, AND THEIR SYNTHESES” (Wyeth, priority 2008, published 2010) one finds IC50 data, which are given here for 22 molecules.

What all share (type): biochemical
For one assay, the target named is PI3K-α (Homo sapiens, UniProt P42336). The assay can be described thus: PI3K-alpha fluorescence polarization assay. Conditions: 20 μM PIP2, 25 μM ATP. The procedure:
(§1) The reaction buffer was 20 mM HEPES pH7.5, 2 mM MgCl2, 0.05% CHAPS, and 0.01% βME (added fresh). The substrate solution was 40 μM PIP2 (diC8, Echelon, Salt Lake City Utah cat #P-4508, 1 mM in water) and 50 μM ATP in the reaction buffer. Nunc 384-well black polypropylene fluorescent plates were used for PI3K assays. The assay is run by putting 9.5 μl of freshly diluted enzyme in the reaction buffer per well, adding 0.5 μl of diluted drug or DMSO, and mixing. Then 10 μl of the substrate solution is added to each well to start the reaction. A final concentration of 20 μM PIP2 and 25 μM ATP in the reaction was used. Reactions were allowed to proceed for 30-60 minutes at room temperature. After 30-60 minutes, 20 μl of a solution of 10 nM TAMRA detector (Red detector probe-Echelon) and 2.5 uM of GST-murineGRP (1.5 mg/ml in 17% glycerol) was added per well to stop the reaction. The resulting solution was mixed well and allowed to stand for 90-110 minutes before reading plate. Assay Plates were read on Perkin-Elmer Envision plate readers with appropriate filters for Tamra [BODIPY-TMRI(1,3,4,5)P4]. Data obtained were used to calculate enzymatic activity and enzyme inhibition by inhibitor compounds. It is important to keep Red probe solutions dark. This procedure is adapted from Echelon Biosciences Inc procedure for their PI3-Kinase fluorescence polarization activity Assay kit Product number K-1100.

The target in another assay is PI3K-γ (Homo sapiens, UniProt P48736). In words: PI3K-gamma fluorescence polarization assay. The settings on record: 20 μM PIP2, 25 μM ATP. On the procedure: as §1
Another assay concerns the target mTOR (Homo sapiens, UniProt P42345). The assay can be described thus: mTOR enzyme assay (DELFIA, His6-S6K phosphorylation). Further details: FLAG. The settings on record: 100 μM ATP, 1.25 μM His6-S6K.

The term pIC50 denotes the IC50 on a negative log10 scale, so that one unit is a factor of ten. High values mean a low IC50, low ones a high IC50.

pIC50: −log10 of the molar value.

PI3K-α, sequence (P42336 whole entry, species assumed): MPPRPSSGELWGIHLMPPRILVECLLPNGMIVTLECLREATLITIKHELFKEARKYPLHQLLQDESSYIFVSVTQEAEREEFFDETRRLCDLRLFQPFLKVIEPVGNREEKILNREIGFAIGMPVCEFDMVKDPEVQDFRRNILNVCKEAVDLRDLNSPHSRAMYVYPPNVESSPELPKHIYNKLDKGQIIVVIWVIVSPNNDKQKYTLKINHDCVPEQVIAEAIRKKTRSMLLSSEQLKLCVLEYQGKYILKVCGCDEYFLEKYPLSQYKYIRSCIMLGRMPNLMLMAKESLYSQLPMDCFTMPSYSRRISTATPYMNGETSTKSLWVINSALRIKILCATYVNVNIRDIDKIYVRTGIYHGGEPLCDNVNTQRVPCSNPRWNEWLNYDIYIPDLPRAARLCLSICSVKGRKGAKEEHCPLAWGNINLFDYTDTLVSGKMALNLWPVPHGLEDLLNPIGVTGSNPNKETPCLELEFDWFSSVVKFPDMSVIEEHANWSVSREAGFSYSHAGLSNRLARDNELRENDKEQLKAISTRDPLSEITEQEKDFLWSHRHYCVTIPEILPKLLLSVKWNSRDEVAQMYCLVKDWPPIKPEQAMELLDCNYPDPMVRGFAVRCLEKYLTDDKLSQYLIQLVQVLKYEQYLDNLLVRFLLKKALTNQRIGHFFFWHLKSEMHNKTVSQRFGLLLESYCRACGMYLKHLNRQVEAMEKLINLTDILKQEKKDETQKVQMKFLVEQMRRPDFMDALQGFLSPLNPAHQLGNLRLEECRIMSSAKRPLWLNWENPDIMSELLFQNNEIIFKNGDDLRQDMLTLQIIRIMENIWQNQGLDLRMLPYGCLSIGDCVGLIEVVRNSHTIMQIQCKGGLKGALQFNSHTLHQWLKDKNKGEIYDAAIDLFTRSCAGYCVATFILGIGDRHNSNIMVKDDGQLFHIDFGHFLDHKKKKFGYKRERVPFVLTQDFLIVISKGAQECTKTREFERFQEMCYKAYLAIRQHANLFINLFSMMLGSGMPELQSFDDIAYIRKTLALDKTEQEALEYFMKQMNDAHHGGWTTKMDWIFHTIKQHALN
PI3K-α, sequence (P27986 whole entry partner, species assumed): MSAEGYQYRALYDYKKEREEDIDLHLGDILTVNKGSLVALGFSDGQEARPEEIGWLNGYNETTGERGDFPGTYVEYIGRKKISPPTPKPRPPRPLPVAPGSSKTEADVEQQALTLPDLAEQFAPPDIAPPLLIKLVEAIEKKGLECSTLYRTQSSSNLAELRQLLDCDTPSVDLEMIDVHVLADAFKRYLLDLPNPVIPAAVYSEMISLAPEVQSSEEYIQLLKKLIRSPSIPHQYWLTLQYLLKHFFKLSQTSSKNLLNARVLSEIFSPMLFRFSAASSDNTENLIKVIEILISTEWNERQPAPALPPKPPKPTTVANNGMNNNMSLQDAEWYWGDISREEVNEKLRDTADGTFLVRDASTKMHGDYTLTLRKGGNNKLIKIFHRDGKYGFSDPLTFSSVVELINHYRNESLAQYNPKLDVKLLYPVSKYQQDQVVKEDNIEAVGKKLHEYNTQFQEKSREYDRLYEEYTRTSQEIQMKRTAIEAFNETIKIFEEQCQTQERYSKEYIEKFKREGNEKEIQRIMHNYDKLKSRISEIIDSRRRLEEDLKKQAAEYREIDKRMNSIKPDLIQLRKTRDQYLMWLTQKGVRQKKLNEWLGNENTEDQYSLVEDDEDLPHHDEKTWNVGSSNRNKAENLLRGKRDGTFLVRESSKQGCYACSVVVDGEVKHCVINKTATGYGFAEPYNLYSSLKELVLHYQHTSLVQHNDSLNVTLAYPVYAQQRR
PI3K-γ, sequence (P48736 whole entry, species assumed): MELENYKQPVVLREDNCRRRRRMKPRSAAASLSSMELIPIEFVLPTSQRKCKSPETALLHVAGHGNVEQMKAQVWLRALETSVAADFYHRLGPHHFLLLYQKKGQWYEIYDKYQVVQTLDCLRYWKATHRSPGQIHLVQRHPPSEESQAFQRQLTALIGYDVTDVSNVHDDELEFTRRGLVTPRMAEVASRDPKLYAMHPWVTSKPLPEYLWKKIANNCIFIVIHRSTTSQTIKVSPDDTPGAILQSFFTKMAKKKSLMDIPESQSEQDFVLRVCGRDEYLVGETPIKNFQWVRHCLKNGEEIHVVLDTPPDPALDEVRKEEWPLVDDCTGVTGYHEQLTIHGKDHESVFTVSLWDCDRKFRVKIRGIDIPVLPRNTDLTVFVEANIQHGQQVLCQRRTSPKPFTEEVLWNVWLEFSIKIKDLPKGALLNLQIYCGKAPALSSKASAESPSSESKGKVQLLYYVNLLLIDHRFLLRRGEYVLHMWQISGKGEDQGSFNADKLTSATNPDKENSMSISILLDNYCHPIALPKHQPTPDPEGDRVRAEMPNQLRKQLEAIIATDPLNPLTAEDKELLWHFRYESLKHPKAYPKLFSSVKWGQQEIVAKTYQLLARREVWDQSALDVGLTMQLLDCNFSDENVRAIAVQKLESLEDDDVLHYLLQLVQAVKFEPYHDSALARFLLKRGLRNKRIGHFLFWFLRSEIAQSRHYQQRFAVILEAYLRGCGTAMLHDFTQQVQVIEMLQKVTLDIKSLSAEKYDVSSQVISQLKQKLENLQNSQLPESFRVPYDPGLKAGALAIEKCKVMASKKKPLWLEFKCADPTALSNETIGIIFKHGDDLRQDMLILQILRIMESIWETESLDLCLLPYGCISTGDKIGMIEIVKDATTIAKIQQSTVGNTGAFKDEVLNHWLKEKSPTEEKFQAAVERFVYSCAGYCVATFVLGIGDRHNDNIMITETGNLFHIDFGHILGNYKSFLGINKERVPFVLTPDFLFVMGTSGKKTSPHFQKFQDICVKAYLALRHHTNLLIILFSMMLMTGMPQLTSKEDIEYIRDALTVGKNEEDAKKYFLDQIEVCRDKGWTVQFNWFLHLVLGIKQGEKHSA

As for `Cn1ncc2c(Oc3ccc4[nH]ccc4c3)nc(-c3ccoc3)nc21` [Example 68, 6-(3-furyl)-4-(1H-indol-5-yloxy)-1-methyl-1H-pyrazolo[3,4-d]pyrimidine], the results for the pIC50 against PI3K-α, against PI3K-γ and against mTOR were 5.98, 5.99 and under 4.70, respectively.
The matching figures for `Cn1ncc2c(Oc3ccc4[nH]ccc4c3)nc(-c3cccc(OCc4ccccc4Cl)c3)nc21` [Example 69, 6-{3-[(2-chlorobenzyl)oxy]phenyl}-4-(1H-indol-5-yloxy)-1-methyl-1H-pyrazolo[3,4-d]pyrimidine]: 4.97, under 5.00 and under 4.70.
The matching figures for `Cc1noc(C)c1-c1nc(Oc2ccc3[nH]ccc3c2)c2cnn(C)c2n1` [Example 72, 6-(3,5-dimethylisoxazol-4-yl)-4-(1H-indol-5-yloxy)-1-methyl-1H-pyrazolo[3,4-d]pyrimidine]: 6.24, 5.87 and under 4.70.
In the case of `COc1ccc(Oc2nc(-c3ccccc3)nc3c2cnn3C)cc1OC` [Example 73, 4-(3,4-dimethoxyphenoxy)-1-methyl-6-phenyl-1H-pyrazolo[3,4-d]pyrimidine], the pIC50 is 5.75 on PI3K-α, under 5.02 against PI3K-γ and 5.09 at mTOR.
Take `CC(=O)Nc1ccc(Oc2nc(-c3ccccc3)nc3c2cnn3C)cc1` [Example 74, N-{4-[(1-methyl-6-phenyl-1H-pyrazolo[3,4-d]pyrimidin-4-yl)oxy]phenyl}acetamide]: the negative logarithm of the IC50 (pIC50) against PI3K-α is 6.20; on PI3K-γ, 5.87; on mTOR it was 5.26.
The matching figures for `Cn1ncc2c(Oc3ccc(C(N)=O)cc3)nc(-c3ccccc3)nc21` [Example 75, 4-[(1-methyl-6-phenyl-1H-pyrazolo[3,4-d]pyrimidin-4-yl)oxy]benzamide]: 5.99, 5.77 and 5.04.
The matching figures for `Cn1ncc2c(Oc3ccc4[nH]ccc4c3)nc(-c3ccccc3)nc21` [Example 76, 4-(1H-indol-5-yloxy)-1-methyl-6-phenyl-1H-pyrazolo[3,4-d]pyrimidine]: 6.25, 6.24 and 6.48.
The matching figures for `CNC(=O)Nc1ccc(-c2nc(Nc3ccc(C(N)=O)cc3)c3cnn(C)c3n2)cc1` [Example 77, 4-(1-methyl-6-(4-(3-methylureido)phenyl)-1H-pyrazolo[3,4-d]pyrimidin-4-ylamino)benzamide]: 6.31, 5.54 and 5.77.
Consider `CNC(=O)Nc1cccc(-c2nc(Nc3ccc(C(N)=O)cc3)c3cnn(C)c3n2)c1` [Example 78, 4-(1-methyl-6-(3-(3-methylureido)phenyl)-1H-pyrazolo[3,4-d]pyrimidin-4-ylamino)benzamide], for which the figures for the pIC50 against PI3K-α, at PI3K-γ and at mTOR were 6.56, 5.44 and 6.11, respectively.
The matching figures for `Cn1ncc2c(Nc3ccc(C(N)=O)cc3)nc(Nc3cccc(NC(=O)Nc4cccnc4)c3)nc21` [Example 80, 4-{[1-Methyl-6-({3-[(pyridin-3-ylcarbamoyl)amino]phenyl}amino)-1H-pyrazolo[3,4-d]pyrimidin-4-yl]amino}benzamide]: 6.28, 5.70 and 5.46.
The matching figures for `CN1CCN(C(=O)c2ccc(NC(=O)Nc3ccc(Nc4nc(Nc5ccc(C(N)=O)cc5)c5cnn(C)c5n4)cc3)cc2)CC1` [Example 81, 4-{[1-Methyl-6-({4-[({4-[(4-methylpiperazin-1-yl)carbonyl]phenyl}carbamoyl)amino]phenyl}amino)-1H-pyrazolo[3,4-d]pyrimidin-4-yl]amino}benzamide]: 9.40, 8.22 and 7.77.
The matching figures for `CN(C)C1CCN(C(=O)c2ccc(NC(=O)Nc3ccc(Nc4nc(Nc5ccc(C(N)=O)cc5)c5cnn(C)c5n4)cc3)cc2)CC1` [Example 82, 4-({6-[(4-{[(4-{[4-(Dimethylamino)piperidin-1-yl]carbonyl}phenyl)carbamoyl]amino}phenyl)amino]-1-methyl-1H-pyrazolo[3,4-d]pyrimidin-4-yl}amino)benzamide]: 9.70, 8.30 and 8.15.
On to `CN(C)C1CCN(C(=O)c2ccc(NC(=O)Nc3ccc(Nc4nc(Nc5ccc(C(N)=O)cc5)c5cnn(C)c5n4)cc3)cc2)C1` (stereo not drawn) [Example 83, 4-({6-[(4-{[(4-{[3-(Dimethylamino)pyrrolidin-1-yl]carbonyl}phenyl)carbamoyl]amino}phenyl)amino]-1-methyl-1H-pyrazolo[3,4-d]pyrimidin-4-yl}amino)benzamide], for which the negative-log IC50 (pIC50) was 9.52 on PI3K-α, 8.15 against PI3K-γ and 8.30 at mTOR.
For `Cn1ncc2c(Nc3ccc(C(N)=O)cc3)nc(Nc3ccc(NC(=O)Nc4ccc(C(=O)N5CCOCC5)cc4)cc3)nc21` [Example 84, 4-[(1-Methyl-6-{[4-({[4-(morpholin-4-ylcarbonyl)phenyl]carbamoyl}amino)phenyl]amino}-1H-pyrazolo[3,4-d]pyrimidin-4-yl)amino]benzamide], the pIC50 on PI3K-α was 9.15; against PI3K-γ it was 8.30; on mTOR, 8.15.
The matching figures for `CN(CCO)C(=O)c1ccc(NC(=O)Nc2ccc(Nc3nc(Nc4ccc(C(N)=O)cc4)c4cnn(C)c4n3)cc2)cc1` [Example 85, 4-({[4-({4-[(4-Carbamoylphenyl)amino]-1-methyl-1H-pyrazolo[3,4-d]pyrimidin-6-yl}amino)phenyl]carbamoyl}amino)-N-(2-hydroxyethyl)-N-methylbenzamide]: 9.40, 7.96 and 8.05.
The matching figures for `CN(C)CCNC(=O)Nc1ccc(Nc2nc(Nc3ccc(C(N)=O)cc3)c3cnn(C)c3n2)cc1` [Example 86, 4-[(6-{[4-({[2-(Dimethylamino)ethyl]carbamoyl}amino)phenyl]amino}-1-methyl-1H-pyrazolo[3,4-d]pyrimidin-4-yl)amino]benzamide]: 8.00, 6.84 and 5.66.
The matching figures for `CC(C)N1CCN(C(=O)c2ccc(NC(=O)Nc3ccc(Nc4nc(Nc5ccc(C(N)=O)cc5)c5cnn(C)c5n4)cc3)cc2)CC1` [Example 87, 4-({1-Methyl-6-[(4-{[(4-{[4-(propan-2-yl)piperazin-1-yl]carbonyl}phenyl)carbamoyl]amino}phenyl)amino]-1H-pyrazolo[3,4-d]pyrimidin-4-yl}amino)benzamide]: 9.40, 8.30 and 8.10.
Take `Cn1ncc2c(Nc3ccc(C(N)=O)cc3)nc(Nc3ccc(NC(=O)NC4CC4)cc3)nc21` [Example 88, 4-{[6-({4-[(Cyclopropylcarbamoyl)amino]phenyl}amino)-1-methyl-1H-pyrazolo[3,4-d]pyrimidin-4-yl]amino}benzamide]: the pIC50 against PI3K-α is 7.57; against PI3K-γ it was 6.58; against mTOR, 7.36.
The matching figures for `CC(C)NC(=O)Nc1ccc(Nc2nc(Nc3ccc(C(N)=O)cc3)c3cnn(C)c3n2)cc1` [Example 89, 4-{[1-Methyl-6-({4-[(propan-2-ylcarbamoyl)amino]phenyl}amino)-1H-pyrazolo[3,4-d]pyrimidin-4-yl]amino}benzamide]: 6.91, 6.28 and 7.15.
The matching figures for `CNC(=O)c1ccc(Nc2nc(Nc3ccc(NC(=O)Nc4cccnc4)cc3)nc3c2cnn3C)cc1` [Example 90, N-Methyl-4-{[1-methyl-6-({4-[(pyridin-3-ylcarbamoyl)amino]phenyl}amino)-1H-pyrazolo[3,4-d]pyrimidin-4-yl]amino}benzamide]: 8.60, 7.12 and 7.92.
In the case of `CN1CCC(NC(=O)Nc2ccc(Nc3nc(Nc4ccc(C(N)=O)cc4)c4cnn(C)c4n3)cc2)CC1` [Example 91, 4-({1-Methyl-6-[(4-{[(1-methylpiperidin-4-yl)carbamoyl]amino}phenyl)amino]-1H-pyrazolo[3,4-d]pyrimidin-4-yl}amino)benzamide], the pIC50 was 6.70 against PI3K-α, 5.50 against PI3K-γ and 5.70 against mTOR.
On to `CN(C)CCN(C)C(=O)c1ccc(NC(=O)Nc2ccc(Nc3nc(Nc4ccc(C(N)=O)cc4)c4cnn(C)c4n3)cc2)cc1` [Example 92, 4-({[4-({4-[(4-Carbamoylphenyl)amino]-1-methyl-1H-pyrazolo[3,4-d]pyrimidin-6-yl}amino)phenyl]carbamoyl}amino)-N-[2-(dimethylamino)ethyl]-N-methylbenzamide], for which the pIC50 against PI3K-α was over 9.52; at PI3K-γ, 8.22; against mTOR, 8.05.
